IC50 data for one substance are collected here from paper PMC13017400, “ENPP1 inhibition as a therapeutic approach for later-onset hypophosphatasia” (Journal of Bone and Mineral Research, 2025).

The target in the test is T1, ENPP1 (ectonucleotide pyrophosphatase/phosphodiesterase 1) (Mus musculus, UniProt P06802).
T1 sequence (P06802 1-906): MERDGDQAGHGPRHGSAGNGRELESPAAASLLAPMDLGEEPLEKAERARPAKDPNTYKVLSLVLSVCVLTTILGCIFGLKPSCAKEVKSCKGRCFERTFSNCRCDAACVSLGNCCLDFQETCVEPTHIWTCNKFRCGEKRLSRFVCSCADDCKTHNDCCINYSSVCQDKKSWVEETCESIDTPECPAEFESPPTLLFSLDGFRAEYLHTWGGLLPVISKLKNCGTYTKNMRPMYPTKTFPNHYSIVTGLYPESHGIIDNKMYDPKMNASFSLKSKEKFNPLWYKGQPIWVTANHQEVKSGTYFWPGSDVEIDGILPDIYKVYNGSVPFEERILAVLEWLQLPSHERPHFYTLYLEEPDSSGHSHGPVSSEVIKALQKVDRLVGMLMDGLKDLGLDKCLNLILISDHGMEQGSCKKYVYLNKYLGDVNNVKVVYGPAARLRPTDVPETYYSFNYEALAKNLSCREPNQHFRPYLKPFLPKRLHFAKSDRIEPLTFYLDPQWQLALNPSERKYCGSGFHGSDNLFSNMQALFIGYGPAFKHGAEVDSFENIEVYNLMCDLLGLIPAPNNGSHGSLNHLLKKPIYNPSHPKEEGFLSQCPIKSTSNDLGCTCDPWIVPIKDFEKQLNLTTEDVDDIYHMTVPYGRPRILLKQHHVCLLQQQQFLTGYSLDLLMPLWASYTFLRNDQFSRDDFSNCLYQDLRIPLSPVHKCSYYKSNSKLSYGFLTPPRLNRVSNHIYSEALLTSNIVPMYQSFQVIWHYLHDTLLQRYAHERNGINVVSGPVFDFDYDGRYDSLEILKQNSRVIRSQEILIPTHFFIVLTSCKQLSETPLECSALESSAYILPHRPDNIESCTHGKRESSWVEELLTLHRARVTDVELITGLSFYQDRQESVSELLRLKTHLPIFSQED
Description: Transcreener AMP/GMP TR-FRET enzymatic assay, […] mouse ENPP1 protein, […] ATP. The class given is biochemical.

By IC50 is commonly meant the point on the concentration scale where inhibition reaches its midpoint. A high value points to a need for much substance. Turning to REV102, the half-maximal inhibitory concentration (IC50) stood at 6.3 nM.
